Reference: BindingDB's records for doi:10.1021/jm00100a005 (Eli Lilly, 1992)
pIC50: −log10 of the molar value.

Molecular target: Muscarinic acetylcholine receptor M1 (Oryctolagus cuniculus)
Experiment: Efficacy at muscarinic acetylcholine receptor M1 measured by the ability to inhibit the electrically stimulated twitch of the rabbit vas deferens

pIC50: 12.00
Compound: CCCCCCSc1nsnc1C1=CCCN(C)C1 [5-(4-Hexylsulfanyl-[1,2,5]thiadiazol-3-yl)-1-methyl-1,2,3,6-tetrahydro-pyridine; oxalic acid]
